Test results published in US7579006B2, “Method of treating immune pathologies with low dose estrogen” (Oregon Health and Science University, priority 2000, dated 2009).

Tests used:
splenic T cells = experiment: Splenic T cell proliferation and cytokine responses of treated Tg mice with EAE; format: in vivo; settings: 0.36 mg pellet, average
Procedure: Proliferation assay. Spleens (SPL) were removed surgically, and single cell suspensions were prepared. Proliferative responses of T cells were determined in 96-well microtiter plates by incubating 4×10^5 spleen cells plus antigen at an optimal concentration of 20 μg/well. Cultures were incubated for 72 hr at 37° C. and 7% CO2, the last 18 hr in the presence of 0.5 μCi ^3H-thymidine. Cells were harvested onto glass fiber filters, and thymidine uptake was determined by liquid scintillation. Mean cpm±SEM were calculated from triplicate wells. The stimulation index (SI) was obtained by dividing cpm from antigen-stimulated wells by cpm from wells with no antigen. SI in cultures stimulated with GST alone was subtracted from the SI induced with GST-BV8S2 protein.
Proliferation assay. Proliferation responses of splenic T cells were determined essentially as described in Example II, except that antigen was used at an optimal concentration of 50 μg/ml.

CNS mononuclear cells = experiment: Intracellular cytokine staining of CNS mononuclear cells; format: in vivo, mice; settings: 2.5 mg pellet
Text: CNS mononuclear cells were isolated from perfused brain and spinal cord by percol gradient centrifugation as described in Bebo et al., J. Neurosci. Res. 52:420-429 (1998). The cells were stimulated with MOG-35-55 peptide for 24 hrs, the last 5 hrs in the presence of Brefeldin A. The cells were then stained with anti-CD4 cychrome labeled antibodies prior to fixation and permeabilization. The cells were subsequently stained with Vβ8.1/8.2 TCR-FITC and the indicated cytokine specific antibody coupled to PE and analyzed by three-color flow cytometry. For each experiment the cells were stained with isotype control antibodies to establish background staining and to set the quadrants prior to calculating the percent positive cells.
Intracellular staining of CNS mononuclear cells with anti-cytokine antibodies was also performed. Mononuclear cells were recovered from the brain and spinal cords of perfused mice at the peak of clinical disease. […] These cells were stained with anti-CD4 cychrome labeled antibodies and the frequency of cytokine producing Vβ8.2+ helper T cells was measured by staining with anti-Vβ8.2-FITC and PE-labeled cytokine specific antibodies.

[1] = system: draining lymph node (LN) cells; experiment: MOG 35-55 stimulated proliferation of draining lymph node cells; format: in vivo; settings: WT and cytokine deficient mice, 2.5 mg pellet
Procedure: Proliferation assay. Proliferation assays were performed on draining lymph node (DLN) and spleen (SP) cells essentially as described in Examples I and II, using MOG 35-55 as the test antigen. […] Proliferation of draining lymph node (LN) cells from either untreated or E2 treated mice was measured to determine if E2 could alter the ability of T lymphocytes to recognize and respond to the immunizing antigen. LN cells were isolated from three representative mice for each group and the cells pooled prior to stimulation with MOG 35-55 for 72 hr.

IL-4 KO mice = experiment: EAE induced with MOG 35-55 in IL-4 KO mice (clinical, histopathology); format: in vivo; settings: 2.5 mg pellet
Procedure: (§1) Estrogen treatment. Sixty-day release pellets containing 2.5 mg of 17β-estradiol (E2) or vehicle were implanted subcutaneously (s.c) in the scapular region behind the neck using a 12-gauge trochar as described by the manufacturer (Innovative Research of America, Sarasota, Fla.). The mice were implanted one week prior to immunization with MOG 35-55. The concentration of E2 expected in the serum is between 1,500-2,000 pg/ml, which is approximately 5 times less than the levels found during pregnancy.
(§2) Induction of EAE. C57BL/6 and cytokine deficient mice were inoculated s.c in the flanks with 0.2 ml of an emulsion containing 200 μg of MOG 35-55 in saline and an equal volume of complete Freund's Adjuvant (CFA) containing 400 μg of Mycobacterium tuberculosis H37RA (Difco Laboratories, Detroit, Mich.). Disease induction required i.v. administration of pertussis toxin on the day of immunization (25 ng/mouse) and 2 days later (67 ng/mouse). The mice were assessed daily for clinical signs of EAE according to the 7 point scale described in Example I.
(§3) Histopathology. Histopathologic assessment of spinal column section was performed essentially as described in Example I, except that sections were stained with either luxol fast blue-periodic acid schiff-hematoxylin or silver nitrate prior to analysis.
(§4) Statistical analysis. Significant differences in incidence and mortality between untreated and E2 treated mice were assessed by Chi-square analysis. Difference in onset was determined using the two-tailed Student t test. Differences in peak score and cumulative disease index (CDI) were assessed by the Mann-Whitney test. Statistical significance of the frequency of cytokine secreting cells was analyzed using Student's t test for comparisons of two means. Differences in the expression of chemokine and cytokine mRNA were also determined using the Student t test. Values of p<0.05 were considered significant.

male SJL mice = experiment: EAE induced with PLP 139-151 in male SJL mice; format: in vivo
[2] = system: spinal cord mononuclear cells; experiment: Mononuclear cell infiltration into spinal cords of Tg females with EAE; format: in vivo, mice; settings: 0.36 mg pellet
Procedure: Induction of active EAE. EAE was induced, and disease assessed, essentially as described in Example II. Disease onset was defined as the first day of clinical signs, peak—acute phase of EAE—as maximum severity of clinical signs (day 16-17 after immunization with encephalitogenic peptide) and recovery as day 28 post-immunization, when clinical severity of EAE was diminished. The cumulative disease index (CDI) was determined for each mouse by summing the daily clinical scores. Mice selected from control, ovariectomized, and 17β-estradiol treated groups were sacrificed and spinal cords were isolated by insufflation and frozen at −70 C or mononuclear cells were isolated over a Percoll step gradient and counted as described in Offner et al., J. Immunol. 161:2178-2186 (1998). Lymph nodes (LN) or spleens (SPL) were removed surgically and passed through a wire mesh screen to obtain a single-cell suspension. Frozen spinal cords were subsequently thawed and evaluated for expression of chemokines, chemokine receptors and cytokines by the RNase protection assay.

IFN-γ KO mice = experiment: EAE induced with MOG 35-55 in IFN-γ KO mice (clinical, histopathology); format: in vivo; settings: 2.5 mg pellet
Procedure: as §1, §2, §3, §4

In the case of `C[C@]12CC[C@@H]3c4ccc(O)cc4CC[C@H]3[C@@H]1CC[C@@H]2O` [17β-estradiol], the “inhibition of proliferation of MBP-Ac1-11 specific T cells” value (splenic T cells) is reported as “about 47%”, the “frequency and staining intensity of TNF-α and IFN-γ producing CD4+ T cells in the CNS” value (CNS mononuclear cells; p<0.0001) is reported as “dramatic reduction” and the “total number of mononuclear cells recovered from perfused CNS, untreated relative to E2 treated mice” value (CNS mononuclear cells; peak of clinical disease) is reported as 4-5 times higher. The “pro-inflammatory cytokine producing CD4+ Vβ8.2+ T cells in CNS” value (CNS mononuclear cells; untreated 29,000 cells/mouse) was 390 cells/mouse, the “LN proliferation response to MOG 35-55” value [1] was “no effect” and the CDI (IL-4 KO mice; IL-4 KO) was 18.4 ± 22.2. The Incidence (IL-4 KO mice; IL-4 KO) was 8/11, the Mortality (IL-4 KO mice; IL-4 KO) was 0/11 and the Onset (IL-4 KO mice; IL-4 KO) was 20.6 ± 4.9. The “Peak Score” value (IL-4 KO mice; IL-4 KO) was 4.4 ± 1.0, the “Inflammatory foci/section” value (IL-4 KO mice; IL-4KO, spinal cord) was 0.0 ± 0.0 Foci/Section and the CDI (male SJL mice; 0.36 mg/pellet) was 6.4 ± 5.1. For the same molecule, the Incidence (male SJL mice; 0.36 mg/pellet) was 3/4, the “Incidence (%)” value (male SJL mice; 0.36 mg/pellet) was 75% and the Onset (male SJL mice; 0.36 mg/pellet) was 15.3 ± 3.2 days. The “Peak (disease score)” value (male SJL mice; 0.36 mg/pellet) was 2.1 ± 2.4, the Incidence (male SJL mice; 2.5 mg/pellet) was 0/4 and the “Incidence (%)” value (male SJL mice; 2.5 mg/pellet) was 0%. The “Mean clinical score at time of cord removal” value [2] was 1.3, the Number of cells/cord [2] was 10000 cells/cord and the “prevention of infiltration of mononuclear cells into spinal cords” value [2] was “approximately 60%”. For the same molecule, the “Inflammatory foci/section” value (IFN-γ KO mice; IFN-γKO, spinal cord) was 0.0 ± 0.0 Foci/Section, the CDI (IFN-γ KO mice; IFNγ KO) was 19.3 ± 15.9 and the Incidence (IFN-γ KO mice; IFNγ KO) was 8/10. For the same molecule, the Mortality (IFN-γ KO mice; IFNγ KO) was 1/10, the Onset (IFN-γ KO mice; IFNγ KO) was 21.8 ± 2.7 and the “Peak Score” value (IFN-γ KO mice; IFNγ KO) was 4.5 ± 1.2.
